# Reference: PubChem BioAssay (NCI)
#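 Assay format: 96-well plates, 48-hour exposure. The concentration for 50% growth inhibition is given as GI50. The concentration for full growth arrest is given as TGI.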
# Legend:
# Test in all cases: NCI-60 cell line screen, 48 h
# 786-0 renal = system: 786-0 renal
# A498 renal = system: A498 renal
# A549 NSCLC = system: A549 NSCLC
# ACHN renal = system: ACHN renal
# BT-549 breast = system: BT-549 breast
# CAKI-1 renal = system: CAKI-1 renal
# CCRF-CEM leukemia = system: CCRF-CEM leukemia
# COLO 205 colon = system: COLO 205 colon
# DU-145 prostate = system: DU-145 prostate
# EKVX NSCLC = system: EKVX NSCLC
# HCC-2998 colon = system: HCC-2998 colon
# HCT-116 colon = system: HCT-116 colon
# HCT-15 colon = system: HCT-15 colon
# HL-60(TB) leukemia = system: HL-60(TB) leukemia
# HOP-62 NSCLC = system: HOP-62 NSCLC
# HOP-92 NSCLC = system: HOP-92 NSCLC
# HS 578T breast = system: HS 578T breast
# HT29 colon = system: HT29 colon
# IGROV1 ovarian = system: IGROV1 ovarian
# K-562 leukemia = system: K-562 leukemia
# KM12 colon = system: KM12 colon
# LOX IMVI melanoma = system: LOX IMVI melanoma
# M14 melanoma = system: M14 melanoma
# MALME-3M melanoma = system: MALME-3M melanoma
# MCF7 breast = system: MCF7 breast
# MDA-MB-231 breast = system: MDA-MB-231 breast
# MDA-MB-435 = system: MDA-MB-435
# MOLT-4 leukemia = system: MOLT-4 leukemia
# NCI-H226 lung = system: NCI-H226 lung
# NCI-H23 lung = system: NCI-H23 lung
# NCI-H460 lung = system: NCI-H460 lung
# NCI-H522 lung = system: NCI-H522 lung
# NCI/ADR-RES ovarian = system: NCI/ADR-RES ovarian
# OVCAR-3 ovarian = system: OVCAR-3 ovarian
# OVCAR-4 ovarian = system: OVCAR-4 ovarian
# OVCAR-5 ovarian = system: OVCAR-5 ovarian
# OVCAR-8 ovarian = system: OVCAR-8 ovarian
# PC-3 prostate = system: PC-3 prostate
# RPMI-8226 leukemia = system: RPMI-8226 leukemia
# RXF 393 renal = system: RXF 393 renal
# SF-268 CNS = system: SF-268 CNS
# SF-295 CNS = system: SF-295 CNS
# SF-539 CNS = system: SF-539 CNS
# SK-MEL-2 melanoma = system: SK-MEL-2 melanoma
# SK-MEL-28 melanoma = system: SK-MEL-28 melanoma
# SK-MEL-5 melanoma = system: SK-MEL-5 melanoma
# SK-OV-3 ovarian = system: SK-OV-3 ovarian
# SN12C renal = system: SN12C renal
# SNB-19 CNS = system: SNB-19 CNS
# SNB-75 CNS = system: SNB-75 CNS
# SR leukemia = system: SR leukemia
# SW-620 colon = system: SW-620 colon
# T-47D breast = system: T-47D breast
# TK-10 renal = system: TK-10 renal
# U251 CNS = system: U251 CNS
# UACC-257 melanoma = system: UACC-257 melanoma
# UACC-62 melanoma = system: UACC-62 melanoma
# UO-31 renal = system: UO-31 renal
compound,measurement,setting,value
COc1cc2c(cc1I)-c1c(cc(OC)c(OC)c1OC)CC[C@@H]2NC(C)=O,GI50,786-0 renal,434 nM
same,TGI,786-0 renal,9260 nM
same,GI50,A498 renal,231 nM
same,TGI,A498 renal,725 nM
same,GI50,A549 NSCLC,577 nM
same,TGI,A549 NSCLC,> 51900 nM
same,GI50,ACHN renal,614 nM
same,TGI,ACHN renal,33800 nM
same,GI50,BT-549 breast,691 nM
same,TGI,BT-549 breast,3160 nM
same,GI50,CAKI-1 renal,522 nM
same,TGI,CAKI-1 renal,> 47000 nM
same,GI50,CCRF-CEM leukemia,411 nM
same,TGI,CCRF-CEM leukemia,> 100000 nM
same,GI50,COLO 205 colon,314 nM
same,TGI,COLO 205 colon,1360 nM
same,GI50,DU-145 prostate,317 nM
same,TGI,DU-145 prostate,1030 nM
same,GI50,EKVX NSCLC,2550 nM
same,TGI,EKVX NSCLC,> 100000 nM
same,GI50,HCC-2998 colon,664 nM
same,TGI,HCC-2998 colon,6310 nM
same,GI50,HCT-116 colon,384 nM
same,TGI,HCT-116 colon,7140 nM
same,GI50,HCT-15 colon,419 nM
same,TGI,HCT-15 colon,16800 nM
same,GI50,HL-60(TB) leukemia,461 nM
same,GI50,HOP-62 NSCLC,556 nM
same,TGI,HOP-62 NSCLC,> 33000 nM
same,GI50,HOP-92 NSCLC,987 nM
same,TGI,HOP-92 NSCLC,10700 nM
same,GI50,HS 578T breast,207 nM
same,TGI,HS 578T breast,593 nM
same,GI50,HT29 colon,294 nM
same,TGI,HT29 colon,2670 nM
same,GI50,IGROV1 ovarian,323 nM
same,TGI,IGROV1 ovarian,5430 nM
same,GI50,K-562 leukemia,385 nM
same,TGI,K-562 leukemia,17800 nM
same,GI50,KM12 colon,390 nM
same,TGI,KM12 colon,5600 nM
same,GI50,LOX IMVI melanoma,573 nM
same,TGI,LOX IMVI melanoma,18700 nM
same,GI50,M14 melanoma,283 nM
same,TGI,M14 melanoma,2650 nM
same,GI50,MALME-3M melanoma,383 nM
same,TGI,MALME-3M melanoma,32000 nM
same,GI50,MCF7 breast,370 nM
same,TGI,MCF7 breast,20800 nM
same,GI50,MDA-MB-231 breast,834 nM
same,TGI,MDA-MB-231 breast,7210 nM
same,GI50,MDA-MB-435,213 nM
same,TGI,MDA-MB-435,550 nM
same,GI50,MOLT-4 leukemia,672 nM
same,TGI,MOLT-4 leukemia,25800 nM
same,GI50,NCI-H226 lung,1460 nM
same,TGI,NCI-H226 lung,22000 nM
same,GI50,NCI-H23 lung,413 nM
same,TGI,NCI-H23 lung,5650 nM
same,GI50,NCI-H460 lung,374 nM
same,TGI,NCI-H460 lung,3900 nM
same,GI50,NCI-H522 lung,178 nM
same,TGI,NCI-H522 lung,689 nM
same,GI50,NCI/ADR-RES ovarian,985 nM
same,TGI,NCI/ADR-RES ovarian,6180 nM
same,GI50,OVCAR-3 ovarian,232 nM
same,TGI,OVCAR-3 ovarian,572 nM
same,GI50,OVCAR-4 ovarian,2240 nM
same,TGI,OVCAR-4 ovarian,> 100000 nM
same,GI50,OVCAR-5 ovarian,573 nM
same,TGI,OVCAR-5 ovarian,39100 nM
same,GI50,OVCAR-8 ovarian,526 nM
same,TGI,OVCAR-8 ovarian,14200 nM
same,GI50,PC-3 prostate,464 nM
same,TGI,PC-3 prostate,> 42200 nM
same,GI50,RPMI-8226 leukemia,505 nM
same,TGI,RPMI-8226 leukemia,> 100000 nM
same,GI50,RXF 393 renal,211 nM
same,TGI,RXF 393 renal,569 nM
same,GI50,SF-268 CNS,424 nM
same,TGI,SF-268 CNS,6540 nM
same,GI50,SF-295 CNS,299 nM
same,TGI,SF-295 CNS,3410 nM
same,GI50,SF-539 CNS,239 nM
same,TGI,SF-539 CNS,737 nM
same,GI50,SK-MEL-2 melanoma,235 nM
same,TGI,SK-MEL-2 melanoma,858 nM
same,GI50,SK-MEL-28 melanoma,344 nM
same,TGI,SK-MEL-28 melanoma,19100 nM
same,GI50,SK-MEL-5 melanoma,290 nM
same,TGI,SK-MEL-5 melanoma,1100 nM
same,GI50,SK-OV-3 ovarian,416 nM
same,TGI,SK-OV-3 ovarian,12600 nM
same,GI50,SN12C renal,589 nM
same,TGI,SN12C renal,52000 nM
same,GI50,SNB-19 CNS,485 nM
same,TGI,SNB-19 CNS,> 41000 nM
same,GI50,SNB-75 CNS,388 nM
same,TGI,SNB-75 CNS,32600 nM
same,GI50,SR leukemia,391 nM
same,TGI,SR leukemia,34600 nM
same,GI50,SW-620 colon,312 nM
same,TGI,SW-620 colon,42200 nM
same,GI50,T-47D breast,366 nM
same,TGI,T-47D breast,> 100000 nM
same,GI50,TK-10 renal,607 nM
same,TGI,TK-10 renal,27300 nM
same,GI50,U251 CNS,412 nM
same,TGI,U251 CNS,12200 nM
same,GI50,UACC-257 melanoma,415 nM
same,TGI,UACC-257 melanoma,60000 nM
same,GI50,UACC-62 melanoma,528 nM
same,TGI,UACC-62 melanoma,30300 nM
same,GI50,UO-31 renal,517 nM
same,TGI,UO-31 renal,> 36800 nM
